Patent US20180346731A1, “Formation of Stable Pyranoanthocyanins, and Uses Thereof as Sources of Natural Color” (Ohio State Innovation Foundation, priority 2017, published 2018)
“And” between values parts separate entries of the source, which are not always exact repeats. Equal values may be shown once.

Experiments:
[1] = UV-Vis absorbance loss and first-order bleaching kinetics of pigment solutions with ascorbic acid (pH 3.0 citrate buffer, 25° C., dark); format: physicochemical; details: for K (reaction rate, first-order) / t1/2: 25° C. dark
Protocol: The semi-purified chokeberry extract, the isolated cyanidin-3-galactoside, and the purified 5-carboxypyranocyanidin-3-galactoside were diluted in pH 3.0 citrate buffer (0.1 M adjusted with HCl) until an absorbance of 1.0 at their respective λmax was reached. Levels of AA of 250, 500, and 1000 mg/L were added using a concentrated ascorbic acid stock solution, and a control consisting of each pigment with the absence of AA was maintained. The control consisted of the pigment in the buffer in the absence of AA. An additional test was performed with the same model juice using hydrogen peroxide, a known degradation product of AA. To determine if AA bleaching was due to formation of H2O2, direct addition of it was investigated. In place of added AA, a 62.2 μL of a 0.3% peroxide solution was added to match the molar equivalency of the 500 mg/L AA level, which was 2.84 mM. All samples were brought to the same final volume with additional citrate buffer. […] Samples were stored in the dark at 25° C. in an incubator. UV-Vis spectrophotometry, colorimetry, and HPLC analyses were conducted over a 5 day period following the addition of ascorbic acid or hydrogen peroxide. UV-Vis spectral data was collected every hour for the first 8 hours, and then at 12 hr, and daily from that point on for 5 days. […] HPLC analyses were conducted on days 0, 1, 3, and 5. All treatments were run in triplicate. A SpectraMax 190 Microplate Reader (Molecular Devices, Sunnyvale, Calif., U.S.) with a 96-well plate (poly-D-lysine coated polystyrene) were used for the evaluation of absorbance from 380-700 nm, 1 nm intervals. Aliquots (200 uL) of samples were loaded into individual wells, and a blank consisted of the same citrate buffer used. Because of the rapid nature of AA-induced color loss, degradation kinetics were evaluated in terms of change in maximum absorbance at the original λmax over time. Bleaching is a first-order reaction, typical of ACN degradation, and was modeled as such in determining the reaction rate and half-life. The decrease in maximum absorbance correlated with an increase in lightness (L*) as well as the decrease in chroma (c*). The reduction in maximum absorbance did closely follow first-order kinetics for chokeberry extract and cyanidin-3-galactoside but slightly deviated for 5-carboxypyranocyanidin-3-galactoside. […] The kinetics results for each pigment and AA level can be found in Table 3 below.

[2] = HPLC monitoring of pigment peaks with ascorbic acid; format: physicochemical
Protocol: Prior to experimentation, pigments were evaluated for purity by using an analytical HPLC only different from the previously listed one by the use of different pumps (LC-20AD, Shimadzu, Md., US). Purified pigments were filtered using the Phenex RC 0.45 μm membranes. A binary system with 1 mL/min flow rate was used: solvent A: 4.5% formic acid in HPLC grade water and solvent B: HPLC grade acetonitrile. The gradient began with an isocratic flow of 6% solvent B for 17 minutes (elution of primary anthocyanins), increasing to 15% solvent B by 45 minutes (elution of primary pyranoanthocyanins), and to 40% solvent B by 50 minutes. A 10 μL injection volume was loaded onto a Phenomenex Kinetix 5 μm EVO C18 100 A. 150×4.6 mm column and Phenomenex Ultra UHPLC EVO C18 guard cartridge attached.
(§1) The semi-purified chokeberry extract, the isolated cyanidin-3-galactoside, and the purified 5-carboxypyranocyanidin-3-galactoside were diluted in pH 3.0 citrate buffer (0.1 M adjusted with HCl) until an absorbance of 1.0 at their respective λmax was reached. Levels of AA of 250, 500, and 1000 mg/L were added using a concentrated ascorbic acid stock solution, and a control consisting of each pigment with the absence of AA was maintained. The control consisted of the pigment in the buffer in the absence of AA. An additional test was performed with the same model juice using hydrogen peroxide, a known degradation product of AA. To determine if AA bleaching was due to formation of H2O2, direct addition of it was investigated. In place of added AA, a 62.2 μL of a 0.3% peroxide solution was added to match the molar equivalency of the 500 mg/L AA level, which was 2.84 mM.
(§2) All samples were brought to the same final volume with additional citrate buffer. […] Samples were stored in the dark at 25° C. in an incubator. UV-Vis spectrophotometry, colorimetry, and HPLC analyses were conducted over a 5 day period following the addition of ascorbic acid or hydrogen peroxide. UV-Vis spectral data was collected every hour for the first 8 hours, and then at 12 hr, and daily from that point on for 5 days. […] HPLC analyses were conducted on days 0, 1, 3, and 5. All treatments were run in triplicate.
Prepared solutions were monitored to determine the formation of potential degradation products or profile changes. Using the analytical HPLC system and conditions described, chromatograms were monitored with the max plot (260-700 nm), 490 nm (near λmax of 5-carboxypyranocyanidin-3-galactoside), and 520 nm (near ma of cyanidin-3-galactoside). A max plot of 470-520 nm was later added to standardize changes in the AUC for all three pigments and their degradation products.

[3] = Colorimetry (CIEL*c*h*, ΔE) of pigment solutions with ascorbic acid; format: physicochemical
Protocol: as §1, §2
Using UV-Vis spectral data (5 nm steps, 380-700 nm) in combination with software written for color conversion, absorbance data was translated to CIE-L*c*h*. The calculations for CIE-L*c*h* implemented by the software used CIE relative spectral power distribution for a D65 standard illuminants and 10° observer angle function. Color data is reported as L* (lightness), c* (chroma), and h* (hue angle).
Total color changes (ΔE) were calculated as the color change from day 0 to 5 for each respective treatment, and presented in Table 4.
Numbers are means of 3 replications, followed by (standard deviations). ΔE: total color change from day 0 (control) to day 5.

[4] = Direct hydrogen peroxide addition to pigment solutions (HPLC, absorbance); format: physicochemical
Protocol: as §1
All samples were brought to the same final volume with additional citrate buffer. […] Samples were stored in the dark at 25° C. in an incubator. UV-Vis spectrophotometry, colorimetry, and HPLC analyses were conducted over a 5 day period following the addition of ascorbic acid or hydrogen peroxide. […]
Auto-oxidation of AA in solution can give rise to H2O2 formation, a powerful bleaching agent that can further lead to rapid ACN degradation. […] HPLC profiles as well as maximum absorbance and λmax of the solutions were evaluated.

[5] = reported in literature; cited from earlier work

## O=C(O)C1=Cc2c(O[C@@H]3O[C@H](CO)[C@H](O)[C@H](O)[C@H]3O)c(-c3ccc(O)c(O)c3)[o+]c3cc(O)cc(c23)O1 [5-carboxypyranocyanidin-3-galactoside]
[1]; 250 mg/L AA
  K (reaction rate, first-order): 2.69E−03
  t1/2: 258 h
[1]; 500 mg/L AA, 5 day period
  reduction in maximum absorbance: 38%
[1]; 500 mg/L AA, after treatment
  λmax after hypsochromic change: 484 nm
[1]; 500 mg/L AA, start
  λmax before hypsochromic change: 491 nm
[1]; 500 mg/L AA
  K (reaction rate, first-order): 4.61E−03
  t1/2: 150 h
[1]; 1000 mg/L AA
  K (reaction rate, first-order): 1.08E−02
  t1/2: 64 h
[1]; Control, no AA, absorbance at λvis-max
  K (reaction rate, first-order): 7.08E−04
[1]; all levels of AA added
  time before a significant difference (p<0.05) in maximum absorbance from time 0: 24 h
[1]; over the 5 days of AA treatment, regardless of AA level
  hypsochromic shift of λmax: ≤ 10 nm
[2]; 1000 mg/L AA, HPLC
  target peaks left after 1 day: 10%
[2]; 1 g/L AA, HPLC AUC
  reduction of pigment peak by day 1: 93%
  reduction of pigment peak by day 5: 99%
[3]; 250 mg/L AA
  Chroma Day 0: 55.2 (0.4)
  Chroma Day 5: 43.2 (0.2)
  Hue Angle Day 0: 50.7 (0.2) °
  Hue Angle Day 5: 46.9 (.3) °
  Lightness Day 0: 81.9 (0.1)
  Lightness Day 5: 82.8 (0.3)
  ΔE Over 5 days: 4.5 (0.2)
[3]; 500 mg/L AA
  Chroma Day 0: 54.7 (0.3)
  Chroma Day 5: 39.2 (0.3)
  Hue Angle Day 0: 50.4 (0.1) °
  Hue Angle Day 5: 48.3 (0.4) °
  Lightness Day 0: 82.1(0.3)
  Lightness Day 5: 83.6 (0.4)
  ΔE Over 5 days: 5.0 (0.2)
[3]; 1000 mg/L AA
  Chroma Day 5: 36.2 (0.3)
  Hue Angle Day 0: 51.0 ° and 51.0 (0.1) °
  Hue Angle Day 5: 57.1 ° and 57.1 (0.7) °
  Lightness Day 5: 83.7 (0.2)
  ΔE Over 5 days: 5.2 (0.5)
[3]; 1000 mg/L AA, 48 hours
  L* after 48 hours: 86.6
[3]; 1000 mg/L AA, listed as 5-Carboxypyranocyanidin-3-galactoside
  ΔE Over 5 days: 5.2
[3]; Control, no AA
  Chroma Day 0: 54.3 (0.7)
  Chroma Day 5: 49.9 (1.3)
  Hue Angle Day 0: 50.0 (0.2) °
  Hue Angle Day 5: 47.5 (0.6) °
  Lightness Day 5: 82.2 (0.6)
  ΔE Over 5 days: 2.1 (0.4)
[3]; Control, no AA, mean (SD), n=3
  Lightness Day 0: 82.2 (0.2)
[3]; all levels of AA
  time until significant change in chroma as compared to the control: 48 h
[3]; day 0
  initial hue angle: 50 °
[4]
  resistance to bleaching with H2O2: more resistant to bleaching compared to anthocyanins

## OC[C@H]1O[C@@H](Oc2cc3c(O[C@@H]4O[C@H](CO)[C@@H](O)[C@H](O)[C@H]4O)cc(O)cc3[o+]c2-c2ccc(O)c(O)c2)[C@H](O)[C@@H](O)[C@@H]1O [Cy-3-glu-5-glu]
[5]
  pKh: 2.23
